Measured values published in PubChem BioAssay AID1973 (The Scripps Research Institute Molecular Screening Center, 2009).
Calls of active or inactive are those of the source.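 How the source made its calls: active means IC50 dose giving half inhibition of the KLF5 reporter of 10 micromolar or lower; inactive means IC50 above 10 micromolar.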

Test system: DLD-1 KLF5 promoter-luciferase reporter, luminescence
Assay: KLF5 promoter reporter inhibitors, dose response, luminescence, DLD-1 cells, luciferase reporter (AID 1973)

With Cc1cc(-c2ccccc2)n(-c2cc(N/N=C/c3ccccc3O)ncn2)n1 the IC50 was 998 nM.
For O=C(NC1=NCCS1)C1COc2ccccc2O1 (stereo unspecified), the IC50 was 2630 nM.
Cc1cc(C(=O)COC(=O)c2ccccc2O)c(C)n1Cc1cccs1 was tested, and the IC50 was 563 nM.
For CN(C)c1ccc(/C=N/Nc2cccc(C(=O)O)c2)cc1, the IC50 was 617 nM.
Molecule CC(C)CC(NC(=O)CCCNC(=O)CCC(=O)OC1O[C@H]2OC3(C)CC[C@H]4[C@H](C)CCC(C1C)C24OO3)C(=O)O (stereo partly specified) has an IC50 of 502 nM.
Molecule Cc1ccc2nc(NC(=O)CCCc3nc4ccccc4s3)sc2c1 has an IC50 of 207 nM.
Work on c1ccc(-c2ccc(-c3nc(-c4ccccn4)no3)cc2)cc1 yielded an IC50 of 360 nM.
For O=C(CN1C(=O)c2ccccc2S1(=O)=O)c1ccc(Cl)cc1Cl, the IC50 was 1690 nM.
In the case of CC(C)(C)c1ccc(C(=O)O/N=C(\N)c2ccccn2)cc1, the IC50 is reported as 270 nM.
For CN(C)c1ccc(/C=C/c2nc3ccccc3c(=O)[nH]2)cc1, the IC50 was 1510 nM.
Cn1cccc1-c1cc(C(=O)N/N=C/c2cc(Br)ccc2O)[nH]n1 gave an IC50 of 1500 nM.
CCCCN=C[C@]12CCC(O)CC1(O)CCC1[C@@H]2CC[C@]2(C)[C@H](C3C=CC(=O)O3)CCC12O (stereo partly specified) showed an IC50 of 2020 nM.
O=C(N/N=C/c1c(O)ccc2ccccc12)c1ccc(Br)o1 showed an IC50 of 1780 nM.
Oc1ccc(N=Nc2ccccc2C(F)(F)F)c2cccnc12 was tested, and the IC50 was 1900 nM.
In the case of Nc1c(C(=O)Nc2cccc(C(=O)O)c2)sc2nc3c(cc12)CCCC3, the IC50 is reported as 1470 nM.
COc1ccc(N/N=C/c2c(C(=O)O)ccc3ccccc23)cc1 was tested, and the IC50 was 1690 nM.
For CCCS(=O)(=O)c1cnc(C2COc3ccccc3O2)nc1N (stereo unspecified), the IC50 was 1400 nM.
CC(C)(C)C(=O)Nc1cc2nn(-c3ccccc3)nc2cc1Cl showed an IC50 of 98.8 nM.
In the case of Cc1ccc2[nH]c(C(=O)N/N=C/c3ccccc3O)c(C)c2c1, the IC50 is reported as > 39800 nM (inactive).
In the case of Cc1ccc(C(=O)Nc2cnc3ccccc3c2)cc1, the IC50 is reported as 735 nM.
For Cc1cc(C(=O)CN2C(=O)c3ccccc3S2(=O)=O)c(C)n1CC1CCCO1 (stereo unspecified), the IC50 was 267 nM.
For N/C(=N\OCc1ccc([N+](=O)[O-])cc1)c1ccccn1, the IC50 was 1050 nM.
O=C(N/N=C/c1c(O)ccc2ccccc12)c1cccnc1 was tested, and the IC50 was 1620 nM.
For COc1cccc(/C=N/Nc2nccnc2Cl)c1O, the IC50 was 2080 nM.
COc1ccc(OC)c(N/C=C/C(=O)c2ccccc2)c1 gave an IC50 of 1690 nM.
O=C(N/N=C/c1cccc(Oc2ccccc2)c1)c1ccccc1F gave an IC50 of 1240 nM.
C[C@@H]1O[C@@H](O[C@H]2C[C@@H](O)[C@]3(CO)[C@H]4[C@H](O)C[C@]5(C)[C@@H](C6COC(=O)C6)CC[C@]5(O)[C@@H]4CC[C@]3(O)C2)[C@H](O)[C@H](O)[C@H]1O (stereo partly specified) was tested, and the IC50 was 3850 nM.
CCN1C=CC(=C2C(=O)c3ccccc3C2=O)C=C1 showed an IC50 of 950 nM.
Molecule CC(C)(C)c1ccc(-c2noc(CCC(=O)NCC3CCCO3)n2)cc1 (stereo unspecified) has an IC50 of 1810 nM.
COC(=O)c1ccc2nc(Nc3nc4ccc(F)cc4s3)sc2c1 showed an IC50 of 6.98 nM.
For COc1cc(/C=C/[N+](=O)[O-])ccc1OCc1cccc(C(=O)O)c1, the IC50 was 2070 nM.
For O=C(c1cc(-c2ccccc2Cl)on1)N1CCCC1, the IC50 was 3480 nM.
Clc1ccccc1/C=C/c1nc(-c2ccccn2)no1 gave an IC50 of 1540 nM.
O=C(CSc1n[nH]c(-c2ccccn2)n1)Nc1ccc(Cl)cc1 gave an IC50 of 4380 nM.
CNC1=C(N(C(C)=O)c2ccc(Br)cc2)C(=O)c2ccccc2C1=O was tested, and the IC50 was 1860 nM.
COc1cccc(/C=N/Nc2ccc(C(=O)O)cc2)c1O showed an IC50 of 43.1 nM.
With COC(=O)c1c(N)sc(C(=O)NCCc2ccccc2)c1C the IC50 was 1930 nM.
For COc1cccc(/C=N/Nc2ncc(C(F)(F)F)cc2Cl)c1O, the IC50 was 562 nM.
With Oc1cccc2ccc(Nc3ccccn3)nc12 the IC50 was 2450 nM.
In the case of O=C(Nc1cccc(O)c1)c1cc(-c2ccc3c(c2)OCO3)on1, the IC50 is reported as 2060 nM.
With C/C(=N\NC(=O)c1n[nH]c2c1CCC2)c1cccs1 the IC50 was 2430 nM.
CCN(CC)S(=O)(=O)c1cc(OC)ccc1N=Nc1ccc(O)c2ncccc12 was tested, and the IC50 was 2030 nM.
Molecule Cc1ccc(C(=O)O/N=C(\N)c2ccccn2)c(C)c1 has an IC50 of 1420 nM.
Work on COc1cccc(/C=N/Nc2ccc([N+](=O)[O-])cn2)c1O yielded an IC50 of 4090 nM.
With NS(=O)(=O)c1ccc(N=Nc2ccc(O)c3ncccc23)cc1 the IC50 was 3180 nM.
In the case of COC(=O)c1ccc(Oc2cc(C)nc(-n3nc(C)cc3C)n2)cc1, the IC50 is reported as 520 nM.
Work on CC(C)Oc1ccc(C(=O)Nc2nc3ccccc3[nH]2)cc1 yielded an IC50 of 1650 nM.
C[C@]12CCC3C(CCC4=CC(O)CC[C@@]43/C=N/O)C1(O)CCC2C1=CC(=O)OC1 (stereo partly specified) showed an IC50 of 2200 nM.
CC(C)(C)c1ccc(C(=O)O/N=C(\N)c2ccccc2)cc1 was tested, and the IC50 was 1750 nM.
Work on O=C(N/N=C/c1cc(Cl)ccc1O)c1cccnc1 yielded an IC50 of 1630 nM.
For Cc1ccc(C(=O)N/N=C/c2cc(Br)ccc2O)cn1, the IC50 was 1910 nM.
With O=C(Nc1nccs1)c1cc2c(s1)CCCCC2 the IC50 was 2860 nM.
For COc1ccc2[nH]c(C(=O)N/N=C/c3ccc(OC)c(O)c3)cc2c1, the IC50 was 5120 nM.
CCOc1cccc(/C=N/NC(=O)c2ccc3c(c2)OCCO3)c1O was tested, and the IC50 was 1650 nM.
For CN(C)c1ccc(Nc2nc(N)c3ccccc3n2)cc1, the IC50 was 2520 nM.
O=C(Nc1nc2cc3c(cc2s1)OCCO3)c1ccco1 showed an IC50 of 1550 nM.
COc1ccc2nc(SCC(=O)NC3CCCC3)c(C)cc2c1 gave an IC50 of 1360 nM.
Work on COc1cc(/C=N/O)ccc1OCc1ccc(C(=O)O)cc1 yielded an IC50 of 820 nM.
Work on CCOc1cc(Br)cc(/C=N/NC(=O)c2cccnc2)c1O yielded an IC50 of 1660 nM.
CCc1ccc(NC(=O)c2cnn3ccccc23)cc1 showed an IC50 of 1860 nM.
With CN(C(=O)COC(=O)/C=C/c1cccc([N+](=O)[O-])c1)C1CCS(=O)(=O)C1 (stereo unspecified) the IC50 was 518 nM.
CCCc1ccc(-c2ccc(/C=C/C(=O)O)cc2)nc1 was tested, and the IC50 was 416 nM.
Molecule O=C(Nc1cccnc1)c1cccs1 has an IC50 of 950 nM.
Molecule CCc1ccc(C(=O)Nc2nc3ccccc3[nH]2)cc1 has an IC50 of 2830 nM.
Cc1ccccc1OCC(=O)Nc1cccc(C(=O)O)c1 gave an IC50 of 1240 nM.
COC(=O)C1=C(CN2CCCc3ccccc32)NC(=O)NC1c1ccc(F)cc1 (stereo unspecified) was tested, and the IC50 was 3050 nM.
In the case of C[C@@H]1O[C@@H](O[C@H]2C[C@@H](O)[C@]3(CO)[C@H]4[C@H](O)C[C@]5(C)[C@@H](C6=CC(=O)OC6)CC[C@]5(O)[C@@H]4CC[C@]3(O)C2)[C@H](O)[C@H](O)[C@H]1O, the IC50 is reported as 165 nM.
With Oc1cccc(/C=N/Nc2ccc(Cl)nn2)c1O the IC50 was 1900 nM.
With O=C(O)c1ccc(N/N=C/c2c[nH]c3ccccc23)cc1 the IC50 was 1520 nM.
COc1ccc(C(=O)Nc2nc3ccccc3s2)c(OC)c1 gave an IC50 of 2340 nM.
Cc1ccc(C(=O)O/N=C(\N)c2ccccn2)c(Cl)c1 showed an IC50 of 2800 nM.
CCOC(=O)c1sc(NC(=O)c2cc3c(s2)CCC(C)C3)nc1C (stereo unspecified) gave an IC50 of 109 nM.
With COC(=O)c1nn(-c2ccc3c(c2)CCN3C(C)=O)cc1O the IC50 was 2040 nM.
With COc1ccccc1N1CCN(Cc2cc(Br)c(O)c3ncccc23)CC1 the IC50 was 2680 nM.
Work on COc1ccc(OC)c(Nc2cc(C)nc3nc(C)nn23)c1 yielded an IC50 of 486 nM.
In the case of c1ccc(-c2noc(-c3ccc4ccccc4c3)n2)nc1, the IC50 is reported as 798 nM.
With COc1cc(N=Cc2c(O)[nH]c3ccccc23)cc(OC)c1OC the IC50 was 1030 nM.
For COc1ccc(C(=O)N/N=C/c2cc(Br)ccc2O)cc1OC, the IC50 was 1560 nM.
CCCc1ccc(C(=O)O/N=C(\N)c2ccccn2)cc1 gave an IC50 of 107 nM.
Molecule O=C(CCCc1ccccc1)c1ccc2c(c1)OCCO2 has an IC50 of 1240 nM.
With CC(C)(C)c1ccc(C(=O)Nc2sc3c(c2C(=O)O)CCC3)cc1 the IC50 was 1160 nM.
O=C(Nc1cccc(C(=O)O)c1)Nc1ccc2c(c1)OCO2 gave an IC50 of 838 nM.
Cc1ccc(C(=O)Nc2nc3ccccc3[nH]2)cc1 showed an IC50 of 3530 nM.
O=C(NCCc1ccccc1F)c1ccc2c(c1)OCCO2 gave an IC50 of 424 nM.
With Nc1ccc(-c2nc3ccc(C(=O)O)cc3s2)cc1 the IC50 was 383 nM.
With Cc1cc(/C=N/Nc2nc(N)ncc2[N+](=O)[O-])c(C)n1-c1ccccc1F the IC50 was 401 nM.
CN1CCN(c2ccc(-c3ccc4ccccc4n3)cc2)CC1 was tested, and the IC50 was 166 nM.
Work on CC(C)(C)c1ccc(-c2noc(CCC(=O)Nc3cccnc3)n2)cc1 yielded an IC50 of 104 nM.
Work on COc1ccc(Cl)cc1C(=O)Nc1nc2ccccc2[nH]1 yielded an IC50 of 4030 nM.
CC(C)(C)C(=O)Nc1ccc(NC(=O)c2ccco2)nc1 was tested, and the IC50 was 960 nM.
With O=C1C(Nc2ccccc2)=C(N2CCCCC2)C(=O)c2ccccc21 the IC50 was 13400 nM (inactive).
COc1ccc(OCc2cccc(C(=O)Nn3cc([N+](=O)[O-])cn3)c2)cc1 showed an IC50 of 332 nM.
With CCOC(=O)c1sc(NC(=O)c2sc(C)nc2C)nc1C the IC50 was > 39800 nM (inactive).
Work on COc1ccc(OC)c2[nH]c(C(=O)N/N=C/c3ccccc3O)cc12 yielded an IC50 of 1670 nM.
Work on CC1CCN(Cc2c(C(=O)N/N=C/c3ccccc3O)nnn2-c2nonc2N)CC1 yielded an IC50 of 1810 nM.
COc1ccc(/C=N/NC(=O)CCn2c3ccccc3c3ccccc32)cc1O showed an IC50 of 1850 nM.
CCNC(=S)NNC(=O)c1cc(-c2ccc(OCC)cc2)nc2ccccc12 showed an IC50 of 4170 nM.
Molecule CCc1ccn2cc(-c3cc(-c4ccccc4)no3)nc2c1 has an IC50 of 660 nM.
CN(CCO)c1ccc(/C=N/Nc2nncc3ccccc23)cc1 was tested, and the IC50 was 1360 nM.
O=C(N/N=C/c1cc(O)ccc1Br)c1cccnc1 showed an IC50 of 1710 nM.
Work on O=C(NCCc1ccccc1)c1ccc2c(c1)OCCO2 yielded an IC50 of 1060 nM.
CC(C)(C)c1ccc(-c2noc(CCC(N)=O)n2)cc1 was tested, and the IC50 was 133 nM.
COc1cccc(/C=N/NC(=O)c2cc3c(OC)ccc(OC)c3[nH]2)c1O was tested, and the IC50 was 2460 nM.
O=C(O)CSCC(=O)Nc1ccc(C2CCCCC2)cc1 was tested, and the IC50 was 1290 nM.
With Cc1ccc(C(=O)N/N=C/c2c(O)ccc3ccccc23)cn1 the IC50 was 1490 nM.
In the case of Cc1ccc(S(=O)(=O)Nc2cc(Cl)c(O)c3ncccc23)cc1, the IC50 is reported as 1820 nM.
CCc1ccn2cc(-c3ccc4c(c3)OCO4)nc2c1 was tested, and the IC50 was 1900 nM.
Work on CC1CCN(c2ccc(-c3cccs3)nn2)CC1 yielded an IC50 of 1260 nM.
Cc1nc2ccccn2c1-c1csc(Nc2cccc(O)c2)n1 gave an IC50 of 395 nM.
O=C(O)c1cccc(COc2ccc3c(c2)CCC3)c1 gave an IC50 of 695 nM.
In the case of Cc1ccc(-c2nnc(SCC(=O)Nc3ccccc3F)o2)cc1, the IC50 is reported as 2500 nM.
O=C(NCCc1ccccc1)c1ccc2c(c1)OCCCO2 showed an IC50 of 421 nM.
O=C(N/N=C/c1cc(Br)ccc1OC(=O)c1ccc(Br)cc1)c1ccncc1 gave an IC50 of 1540 nM.
COc1ccc(-n2ncc3c(N4CCCCC4)ncnc32)cc1 showed an IC50 of 1360 nM.
C#Cc1ccc([C@@H]2C=C(C(=O)N3CCN(Cc4ccccc4)CC3)O[C@H](OCCCCO)C2)cc1 showed an IC50 of 2720 nM.
With O=C(Nc1ccc(N2CCCCC2)cc1)c1ccccn1 the IC50 was 703 nM.
